The structures appear in SMILES notation. pIC50: −log10 of the molar value.

IC50 data for 15 compounds are collected here from ChEMBL document CHEMBL2439954, “3D-QSAR using pharmacophore-based alignment and virtual screening for discovery of novel MCF-7 cell line inhibitors” (Eur J Med Chem, 2013).

This assay deals with MCF7. The assay can be described thus: Cytotoxicity against human MCF7 cells after 48 hrs by MTT assay. Conditions: MCF7, 48 h. Type of assay: functional, cell-based. (Tetrazolium dyes change colour on reduction, which living cells bring about.)

For `CCc1cccc(CC)c1N(COC)C(=O)Cn1c(CO)nc2ccccc21`, the pIC50 (usually −log10 of the IC50, conventionally taken in molar units) was 3.91.
For `Nc1ccc(-c2nc3cc(N)ccc3n2CCO)cc1` the value was < 3.70.
The result for `CC(C)CC(C(=O)Nc1cccc(O)c1)N1C(=O)c2ccccc2C1=O` (stereo not given) reads 3.83; that for `Cc1ccc(C)c(C(=O)C2=C(O)C(=O)N(Cc3ccco3)C2c2cccnc2)c1` (stereo not given), < 3.70; that for `COc1cccc(NC(=O)COc2ccc(C3C(C#N)=C(N)Oc4[nH]nc(C)c43)cc2)c1` (stereo not given), 4.41.
For `Nc1ccc(Oc2ccc3nc(-c4ccccc4)c(-c4ccc(N)cc4)nc3c2)cc1` the value was 4.18.
With `Cc1ccc(/C=N\NC(=O)Cn2c(-c3nonc3N)nc3ccccc32)cc1`, the pIC50 was 3.76.
In the case of `COc1ccc(-n2c(SCC(=O)Nc3cccc(C(C)=O)c3)nnc2-c2ccccc2OC)cc1`, the pIC50 is < 3.70.
For `COc1cc(C2C(C(=O)c3ccc(F)cc3)=C(O)C(=O)N2Cc2cccnc2)ccc1O` (stereo not given) the value was 3.73; for `COc1ccc(-c2cc(C(F)(F)F)n3ncc(C(=O)NC(C)c4ccccc4)c3n2)cc1OC` (stereo not given), 4.52.
Compound `COc1ccc(COC(=O)/C(=C(\C)NC(N)=O)C(C)c2ccccc2OCc2ccccc2)cc1` (stereo not given) gave a pIC50 of 3.97.
`Cc1cc(C(=O)C2=C(O)C(=O)N(CCN3CCOCC3)C2c2ccncc2)ccc1OCC(C)C` (stereo not given) had a pIC50 of 3.82.
The result for `CCOc1cccc(C(=O)C2=C(O)C(=O)N(Cc3ccco3)C2c2cccnc2)c1` (stereo not given) reads 3.74.
The result for `C[C@]12CC[C@H](O)CC1=CC[C@@H]1[C@@H]2CC[C@]2(C)C(=O)CC[C@@H]12` [PRASTERONE] reads < 3.70.
For `CC/C(=C(\c1ccccc1)c1ccc(OCCN(C)C)cc1)c1ccccc1` [TAMOXIFEN] the value was 4.82.
